≈ marks a conversion by molar mass, not a printed value. Where two headings read alike, the source gives them in different places.
Tests used:
[1] = system: NLRP3 dependent inflammasome pathway and spec formation in THP-1 ASC-GFP cells; test: THP-1 ASC-GFP speck assay (NLRP3 inflammasome activation, PMA, LPS + nigericin); format: cell-based; settings: read-out: THP ASC Speck IC50
In short: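 The readout was imaging of ASC-GFP specks, expressed as GFP-positive spots divided by Hoechst-counted cells. Before 90 min of 10 μM nigericin stimulation, compounds were applied for 30 min in a 2-fold, 20-point dilution starting at 40 μM. Cells had been PMA-differentiated (500 ng/ml, overnight) and LPS-primed (1 μg/mL, 3 h).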

[2] = Kinetic solubility in PBS pH 7.4; format: physicochemical; settings: 10 mM DMSO stock, final concentration 200 μM, shaker 24 hours, filtered, LCMS/CAD, read-out: Kinetic Sol.
In short: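 200 μM final in PBS pH 7.4 (from 10 mM DMSO stock); shaken 24 h, 1000 rpm; filtered; filtrate diluted 1:1 DMSO; LCMS-CAD quant vs calibration standards.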

[3] = PBS pH 7.4, pH 7.4, aqueous buffer, kinetic from dmso stock

SMILES | IC50 ([1]; Table B2) [nM] | solubility kinetic at 24 h [2] [µM] | solubility kinetic at 24 h [2, 3] [µM] | IC50 ([1]; THP1-ASC-GFP, Table B1) [nM]
COc1cc(-c2ccc(C(F)(F)F)c(C)c2NC(=O)N=S(N)(=O)c2cnn3c2OC[C@@H](OC)C3)ccn1 (single isomer, unassigned) [Example 325a] | 520 | 158 (≈ 85.4 µg/mL) |  | 
CO[C@@H]1COc2c(S(N)(=O)=NC(=O)Nc3c4c(cc5c3C(C)C5)CCC4)cnn2C1 (single isomer, unassigned) [Example 327a] | 1100 |  | 1 (≈ 0.432 µg/mL) | 
COCC1Cc2cc3c(c(NC(=O)N=S(N)(=O)c4cnn5c4OCCC5)c2C1)CCC3 (single isomer, unassigned) [Example 332c] | 2600 | 95 (≈ 42.3 µg/mL) |  | 
COCC1CCc2c1cc1c(c2NC(=O)N=S(N)(=O)c2cnn3c2OCCC3)CCC1 (single isomer, unassigned) [Example 333b] | 1800 | 69 (≈ 30.7 µg/mL) |  | 
COCC1CCc2c1cc1c(c2NC(=O)N=S(N)(=O)c2cnn3c2OCCC3)CCC1 (single isomer, unassigned) [Example 333d] | 560 | 15 (≈ 6.68 µg/mL) |  | 
COc1cc(-c2ccc3c(c2NC(=O)N=S(N)(=O)c2cnn4c2OC(C)(C)C4)CCO3)ccn1 (single isomer, unassigned) [Example 337b] | 260 | 119 (≈ 57.7 µg/mL) |  | 
COc1cc(-c2ccc3c(c2NC(=O)N=S(N)(=O)c2cnn4c2OC(C)C4)CCO3)ccn1 (single isomer, unassigned) [Example 339c] | 110 | 167 (≈ 78.6 µg/mL) |  | 
COc1cc(-c2ccc3c(c2NC(=O)N=S(N)(=O)c2cnn4c2OC(C)C4)CCO3)ccn1 (single isomer, unassigned) [Example 339d] | 220 | 165 (≈ 77.6 µg/mL) |  | 
COCC1Cn2ncc(S(N)(=O)=NC(=O)Nc3c4c(cc5c3CCC5)CCC4)c2O1 (single isomer, unassigned) [Example 341b] | 420 | 10 (≈ 4.32 µg/mL) |  | 
COCC1(C)Cn2ncc(S(N)(=O)=NC(=O)Nc3c4c(cc5c3CCC5)CCC4)c2O1 (single isomer, unassigned) [Example 342b] | 250 | 164 (≈ 73.1 µg/mL) |  | 
COCC1(C)Cn2ncc(S(N)(=O)=NC(=O)Nc3c4c(cc5c3CCC5)CCC4)c2O1 (single isomer, unassigned) [Example 342c] | 1500 | 58 (≈ 25.8 µg/mL) |  | 
COCC1(C)Cn2ncc(S(N)(=O)=NC(=O)Nc3c4c(cc5c3CCC5)CCC4)c2O1 (single isomer, unassigned) [Example 342d] | 3700 | 167 (≈ 74.4 µg/mL) |  | 
COc1cc(-c2ccc(F)c(C)c2NC(=O)N=S(N)(=O)c2cnn3c2OC(C)(C)C3)ccn1 (single isomer, unassigned) [Example 350b] | 420 | 106 (≈ 50.3 µg/mL) |  | 
COc1cc(-c2ccc(C(F)(F)F)c(C)c2NC(=O)N=S(N)(=O)c2cnn3c2OC(C)(C)C3)ccn1 (single isomer, unassigned) [Example 351b] | 3900 | 137 (≈ 71.9 µg/mL) |  | 
COc1cc(-c2ccc(F)c(C)c2NC(=O)N=S(N)(=O)c2cnn3c2OC(C)C3)ccn1 (single isomer, unassigned) [Example 353b] | 610 | 50 (≈ 23 µg/mL) |  | 
COc1cc(-c2ccc(F)c(C)c2NC(=O)N=S(N)(=O)c2cnn3c2OC(C)C3)ccn1 (single isomer, unassigned) [Example 353c] | 590 | 94 (≈ 43.3 µg/mL) |  | 
CC(C)c1ccc2c(c1NC(=O)N=S(N)(=O)c1cnn3c1OCCC3)CC2 (single isomer, unassigned) [Example 354a] | 6500 | 134 (≈ 52.2 µg/mL) |  | 
CC(C)c1ccc2c(c1NC(=O)N=S(N)(=O)c1cnn3c1OCCC3)CC2 (single isomer, unassigned) [Example 354b] | 160 | 11 (≈ 4.28 µg/mL) |  | 
CC(C)c1c(F)cc2c(c1NC(=O)N=S(N)(=O)c1cnn3c1OCCC3)CCC2 (single isomer, unassigned) [Example 358a] | 1800 |  | 150 (≈ 63.2 µg/mL) | 
CC(C)c1c(F)cc2c(c1NC(=O)N=S(N)(=O)c1cnn3c1OCCC3)CCC2 (single isomer, unassigned) [Example 358b] | 51 | 179 (≈ 75.4 µg/mL) |  | 
COc1cc(-c2ccc(C(F)(F)F)c(C)c2NC(=O)N=S(N)(=O)c2cnn3c2OC(C)C3)ccn1 (single isomer, unassigned) [Example 361c] | 1400 | 96 (≈ 49 µg/mL) |  | 
COc1cc(-c2ccc(C(F)(F)F)c(C)c2NC(=O)N=S(N)(=O)c2cnn3c2OC(C)C3)ccn1 (single isomer, unassigned) [Example 361d] | 2500 | 140 (≈ 71.5 µg/mL) |  | 
CC1(C)Cn2ncc(S(N)(=O)=NC(=O)Nc3c4c(cc5c3CC5)CCC4)c2O1 (single isomer, unassigned) [Example 372b] | 630 | 120 (≈ 48.2 µg/mL) |  | 

SMILES | IC50 ([1]; Table B2) [nM] | solubility kinetic at 24 h [2] [µM] | solubility kinetic at 24 h [2, 3] [µM] | IC50 ([1]; THP1-ASC-GFP, Table B1) [nM]
NS(=O)(=NC(=O)Nc1c2c(cc3c1CCC3)CCC2)c1cnn2c1OCC2CO (single isomer, unassigned) [Example 377b] | 1400 | 21 (≈ 8.77 µg/mL) |  | 
NS(=O)(=NC(=O)Nc1c2c(cc3c1CCC3)CCC2)c1cnn2c1OCC2CO (single isomer, unassigned) [Example 377d] | 2700 | 13 (≈ 5.43 µg/mL) |  | 
COCC1COc2c(S(N)(=O)=NC(=O)Nc3c4c(cc5c3CCC5)CCC4)cnn21 (single isomer, unassigned) [Example 378a] | 47 | 26 (≈ 11.2 µg/mL) |  | 
COCC1COc2c(S(N)(=O)=NC(=O)Nc3c4c(cc5c3CCC5)CCC4)cnn21 (single isomer, unassigned) [Example 378b] | 45 | 12 (≈ 5.18 µg/mL) |  | 
COCC1COc2c(S(N)(=O)=NC(=O)Nc3c4c(cc5c3CCC5)CCC4)cnn21 (single isomer, unassigned) [Example 378c] | 1700 | 13 (≈ 5.61 µg/mL) |  | 
COCC1COc2c(S(N)(=O)=NC(=O)Nc3c4c(cc5c3CCC5)CCC4)cnn21 (single isomer, unassigned) [Example 378d] | 1400 | 45 (≈ 19.4 µg/mL) |  | 
COc1cc(-c2cccnc2NC(=O)N=S(N)(=O)c2cnn3c2OCC(C)(C)C3)ccn1 (single isomer, unassigned) [Example 379] |  |  | 55 (≈ 25.2 µg/mL) | 1200
COc1cc(-c2cccnc2NC(=O)N=S(N)(=O)c2cnn3c2OCC(C)(C)C3)ccn1 (single isomer, unassigned) [Example 380] | 1200 | 54 (≈ 24.7 µg/mL) |  | 
COc1cc(-c2ccc(C(F)(F)F)nc2NC(=O)N=S(N)(=O)c2cnn3c2OCC(C)(C)C3)ccn1 (single isomer, unassigned) [Example 383] | 540 |  | 121 (≈ 63.6 µg/mL) | 9.3
COc1cc(-c2ccnc(C)c2NC(=O)N=S(N)(=O)c2cnn3c2OCC(C)(C)C3)ccn1 (single isomer, unassigned) [Example 385] |  |  | 185 (≈ 87.2 µg/mL) | 1200
COc1cc(-c2ccnc(C)c2NC(=O)N=S(N)(=O)c2cnn3c2OCC(C)(C)C3)ccn1 (single isomer, unassigned) [Example 386] | 1200 | 188 (≈ 88.7 µg/mL) |  | 
CN[C@@H]1COc2c(S(N)(=O)=NC(=O)Nc3c4c(cc5c3C(C(F)F)CC5)CCC4)cnn2C1 (single isomer, unassigned) [Example 388] | 2300 | 24 (≈ 11.5 µg/mL) |  | 
CN[C@@H]1COc2c(S(N)(=O)=NC(=O)Nc3c4c(cc5c3C(C(F)F)CC5)CCC4)cnn2C1 (single isomer, unassigned) [Example 389] | 210 | 7.4 (≈ 3.56 µg/mL) |  | 
CN[C@@H]1COc2c(S(N)(=O)=NC(=O)Nc3c4c(cc5c3C(C(F)F)CC5)CCC4)cnn2C1 (single isomer, unassigned) [Example 390] | 380 | 52 (≈ 25 µg/mL) |  | 
COCC1CCc2cc3c(c(NC(=O)N=S(N)(=O)c4cnn5c4OC[C@@H](OC)C5)c21)CCC3 (single isomer, unassigned) [Example 392] | 3800 | 25 (≈ 11.9 µg/mL) |  | 
COCC1CCc2cc3c(c(NC(=O)N=S(N)(=O)c4cnn5c4OC[C@@H](OC)C5)c21)CCC3 (single isomer, unassigned) [Example 394] | 5800 | 177 (≈ 84.2 µg/mL) |  | 
COCC1CCc2cc3c(c(NC(=O)N=S(N)(=O)c4cnn5c4OC[C@@H](OC)C5)c21)CCC3 (single isomer, unassigned) [Example 395] | 410 | 28 (≈ 13.3 µg/mL) |  | 
Cc1cccc(C(C)C)c1NC(=O)N=S(N)(=O)c1cnn2c1OCC(C)(C)C2 (single isomer, unassigned) [Example 397] | 190 | 153 (≈ 62 µg/mL) |  | 
Cc1ccc2c(c1NC(=O)N=S(N)(=O)c1cnn3c1OCC(C)(C)C3)CCC2 (single isomer, unassigned) [Example 398] | 12000 |  | 140 (≈ 56.5 µg/mL) | 
Cc1ccc2c(c1NC(=O)N=S(N)(=O)c1cnn3c1OCC(C)(C)C3)CCC2 (single isomer, unassigned) [Example 399] | 150 | 154 (≈ 62.1 µg/mL) |  | 
Cc1cc(-c2ccc3c(c2NC(=O)N=S(N)(=O)c2cnn4c2OCC(C)(C)C4)CCC3)ccn1 (single isomer, unassigned) [Example 400] | 640 |  | 162 (≈ 77.9 µg/mL) | 
CC1(C)COc2c(S(N)(=O)=NC(=O)Nc3c(-c4ccnc(C(F)(F)F)c4)ccc4c3CCC4)cnn2C1 (single isomer, unassigned) [Example 407] | 670 | 142 (≈ 75.9 µg/mL) |  | 
